The source of these data is patent US6750028B1, “Anti-fibrotic agent assay” (Ethicon, Inc, priority 1996, dated 2004).

Experiment [1] deals with TGF-β1 activation. Put plainly: Macrophage activation assay (IC-21 macrophages, LPS, fetal fibroblast conditioned media, ELISA). The format is cell-based, mouse. On the procedure: (§1) Cultured macrophages were lifted from the dish with 3 ml of PBS. The PBS was balanced with 15 ml of RPMI-1640 containing 10% FBS. The cells were counted and then seeded in 100 mm plates at 1×10^6 cells/dish. When the cultured macrophages reached approximately 70% confluency (2-3 days) they were washed with PBS and RPMI-1640 medium containing 5% FBS and 10 ng/ml LPS was applied (FIG. 1). After 24 h of activation with LPS the cells were washed gently with PBS. At this point conditioned medium from confluent fetal dermal fibroblasts was collected and 5 ml was distributed into each dish containing macrophages. The cells were incubated for an additional 24 h, the media were collected, spun down at 600×g for 10 min and stored at 4° C. before TGF-β1 evaluation by ELISA. Each condition was done in duplicate. The cells, washed with PBS, were harvested for total RNA extraction.
Fetal dermal fibroblasts were seeded in 100 mm dishes at 1×10^6 cell/dish. The cells were grown to confluency (2-3 days). The cultures were washed with PBS and fresh medium, either DMEM supplemented with 10% FBS or AIM-V medium (a serum free medium) for serum-free conditions, was applied for 24 h (FIG. 1). The medium was collected and combined in order to obtain a homogenous pool of latent TGF-β1. The collection of the medium was done just prior to application in the macrophage assay.
(§2) Each measurement was performed in duplicates.
A general note: An ELISA detects its analyte on a solid surface through an enzyme-linked reagent.

Experiment [2] relates to TGF-β1 activation. Put plainly: Activation of rHLTGF-β1 by macrophages. The format is cell-based, mouse. Particulars: 200 pg/ml rHLTGF-β1. As to the method: as §1, §2
The substitution in the media with purified recombinant latent form of TGF-β1 was tested in an attempt to determine the requirement for fibroblast conditioned media in the macrophage assay. Only 3.3% of rHLTGF-β1 was activated by macrophages when the treatment with LPS was omitted (Table 5).

The test system of experiment [3] is TGF-β1 activation. Kind of experiment: TGF-β1 activation by prostate adenocarcinoma cells (ELISA). The format is cell-based, human. Particulars: prostate cancer cells. On the procedure:
as §2
(§3) It has been shown that cancer cells, such as human breast cancer, some melanoma cell lines and prostate adenocarcinoma cell lines, constitutively release biologically active TGF-β1 into the culture medium (24, 25, 29). Since the homotypic cell culture system would be of advantage due to its simplicity, an attempt was made to implement cancer cells as a method for TGF-β1 activation.

Another experiment deals with TGF-β1 mRNA. Kind of experiment: mRNA for TGF-β1 in macrophages by Northern blot. The format is cell-based, mouse. As to conditions: LPS alone or LPS with M6P or DCA, FIG. 2. As to the method: The cells were washed with PBS, followed by addition of the extraction buffer provided with the kit (RNeasy RNA extraction kit). The lysed cells were scraped from the dish and collected in microtubes. Samples were either frozen at −70° C. before analysis or directly assessed following manufacturer protocol. Absorbance at 260 nm and 280 nm was measured and the integrity of RNA was evaluated by denaturing formaldehyde agarose gels stained with ethidium bromide.
Northern blot analysis was carried out as described previously (27). Briefly, total RNA samples (5 μg) were diluted in formaldehyde-MOPS buffer and subjected to electrophoresis in a denaturing 1.2% Sea Kem GTG agarose gel along with the RNA size markers. RNA was transferred to a nitrocellulose membrane by capillary transfer. The blots were prehybridized for 3 h at 42° C. in a solution containing 10% dextran sulfate, 2×Denhardt's solution, 50% formamide, 5×SSPE (0.75 M Sodium chloride, 0.05 M sodium phosphate, 0.005 M ethylenediaminetetraacetic acid)/0.1% SDS, and 250 μg/ml of sheared salmon testis DNA. Hybridization solution was essentially the same except that ^32P dCTP-labeled DNA probe and 150 μg/ml of salmon testis DNA were included. The hybridization was carried out for 16 h at 42° C. […]

Experiment [4] deals with TGF-β1 activation. Kind of experiment: TGF-β1 activation by Bowes melanoma cells (ELISA). The format is cell-based, human. As to the method:
as §2, §3

The test system of experiment [5] is TGF-β1 activation. Put plainly: TGF-β1 activation by HMB-2 melanoma cells (ELISA). The format is cell-based, human. On the procedure:
as §2, §3

IGF-II: Recombinant human IGF-II: the “effect on TGF-β1 activation, in words” value in the experiment on TGF-β1 activation [1] was “inhibited TGF-β1 activation”; with TGF-β1 activation [1] (IGF-II 15 and 30 nM) it was “dose-dependent inhibitory effect”. Further, the “active TGF-β1, % Control (STD)” value in the experiment on TGF-β1 activation [1] (IGF-II 15 nM) turned out to be 65.1%; in the experiment with TGF-β1 activation [1] (IGF-II 30 nM) it was 54.3%.
With “rHLTGF-β1: Recombinant human latent TGF-β1”, in the experiment on TGF-β1 activation [2] (LPS), the “% Active” value was 12.2%, the “Active TGF-β1” value was 48.8 (3.5) pg/ml and the “Total TGF-β1” value is given as 399 (44.5) pg/ml. In addition, in the experiment with TGF-β1 activation [2] (No LPS), the “% Active” value is recorded as 3.3%, the “Active TGF-β1” value is recorded as 10.9 (7.2) pg/ml and the “Total TGF-β1” value is recorded as 324 (7.2) pg/ml.
As to `Cl.Cl.NCCCCN` [Putrescine, putrescine-dihydrochloride], the “active TGF-β1, % Control (STD)” value in the experiment with TGF-β1 activation [1] (100 μM) is listed as 80.6%.
For `CN(C)c1cccc2c(S(=O)(=O)NCCCCCN)cccc12` [DCA, monodansylcadaverine], the “effect on TGF-β1 activation, in words” value in the experiment with TGF-β1 activation [3], in the experiment on TGF-β1 activation [4] (melanoma cells (Bowes)) and in the experiment on TGF-β1 activation [5] (melanoma cells (HMB-2)) was “no effect” throughout. Further, the “levels of mRNA for TGF-β1, in words” value with TGF-β1 mRNA is recorded as “remained the same”. In addition, the “% ACTIVE TGF-β1 (STD)” value is listed as 145% in the experiment on TGF-β1 activation [4] (BOWES, M6P 100 μM, DCA 100 μM, antibody 1:1500 dil) and 110.7% in the experiment with TGF-β1 activation [5] (HMB-2, M6P 100 μM, DCA 100 μM, antibody 1:1500 dil).
